# Test results: patent publication US6534546B1 (Chugai Seiyaku Kabushiki Kaisha, priority 1994, dated 2003)
# Tests used:
# E-cNOS (Type 3) = molecular target: T1, E-cNOS (Type 3) (Bos taurus, UniProt P29473); test: biochemical; settings: mean of one to four independent experiments; crude enzyme, 100 nM L-[3H]arginine; read-out: IC50 value, E-cNOS (Type 3)
# T1 construct: the resulting supernatant was used as the crude enzyme sample of E-cNOS; endogenous in cells; host or cells: CPAE (cow pulmonary arterial endothelium cells), 1% Triton X-100 extract, 100,000 x g supernatant
# Protocol: The crude enzyme sample of E-cNOS was prepared by the following procedure. A cow pulmonary arterial endothielium cell (CPAE) was cultured in a MEM medium containing 20% FBS. […] A suitable amount of Ca- and Mg-free phosphate buffer (pH 7.4) was added to the precipitating cells and they were centrifuged at 1,000 rpm for 10 min. The same step was repeated to wash the cells which, upon addition of 50 mM Tris-HCl (pH 7.4) containing 1% Triton X-100 and 1 mM DTT, were left to stand in ice for 1 h. Subsequently, the mixture was homogenized for 3 min and kept in ice for 30 min with occasional stirring. Finally, the mixture was centrifuged at 100,000×g for 60 min and the resulting supernatant was used as the crude enzyme sample of E-cNOS.
# The reaction was started by addition of L-[^3H]arginine and following incubation at 37° C. for 10 min, the reaction was terminated by addition of 2 ml of 50 mM Tris-HCl (pH 5.5) containing 1 mM EDTA and placing the mixture on ice. The reaction solution was passed through a cation-exchange resin column (Dowex AG50WX-8, Na^+ form, 3.2 ml) to separate the reaction product L-[^3H]citrulline from the unreacted residual substrate L-[^3H]arginine. The eluate was combined with another eluate resulting from the passage of a given amount of distilled water through the column and put into a minivial for recovery of L-[^3H]citrulline. Thereafter, a scintillation fluid was added and the contained radioactivity was measured with a liquid scintillation counter to determine the amount of L-[^3H]citrulline.
# The activity of N-cNOS or E-cNOS was determined by subtracting the activity as detected in the absence of CaCl2 and calmodulin from the activity as detected in the presence of CaCl2 and calmodulin. […] The protein concentration of each crude enzyme sample was determined with a micro-assay kit of Biorad Co. Each experiment was conducted in a duplicate.
# iNOS (Type 2) = iNOS (Type 2) (Rattus norvegicus, UniProt Q06518); test: biochemical; type: biochemical
# N-cNOS = N-cNOS (Homo sapiens, UniProt P29475); settings: literature reports; cited from earlier work
# iNOS = iNOS (Homo sapiens, UniProt P35228); settings: literature reports; cited from earlier work
# Sequence of iNOS (P35228 whole entry): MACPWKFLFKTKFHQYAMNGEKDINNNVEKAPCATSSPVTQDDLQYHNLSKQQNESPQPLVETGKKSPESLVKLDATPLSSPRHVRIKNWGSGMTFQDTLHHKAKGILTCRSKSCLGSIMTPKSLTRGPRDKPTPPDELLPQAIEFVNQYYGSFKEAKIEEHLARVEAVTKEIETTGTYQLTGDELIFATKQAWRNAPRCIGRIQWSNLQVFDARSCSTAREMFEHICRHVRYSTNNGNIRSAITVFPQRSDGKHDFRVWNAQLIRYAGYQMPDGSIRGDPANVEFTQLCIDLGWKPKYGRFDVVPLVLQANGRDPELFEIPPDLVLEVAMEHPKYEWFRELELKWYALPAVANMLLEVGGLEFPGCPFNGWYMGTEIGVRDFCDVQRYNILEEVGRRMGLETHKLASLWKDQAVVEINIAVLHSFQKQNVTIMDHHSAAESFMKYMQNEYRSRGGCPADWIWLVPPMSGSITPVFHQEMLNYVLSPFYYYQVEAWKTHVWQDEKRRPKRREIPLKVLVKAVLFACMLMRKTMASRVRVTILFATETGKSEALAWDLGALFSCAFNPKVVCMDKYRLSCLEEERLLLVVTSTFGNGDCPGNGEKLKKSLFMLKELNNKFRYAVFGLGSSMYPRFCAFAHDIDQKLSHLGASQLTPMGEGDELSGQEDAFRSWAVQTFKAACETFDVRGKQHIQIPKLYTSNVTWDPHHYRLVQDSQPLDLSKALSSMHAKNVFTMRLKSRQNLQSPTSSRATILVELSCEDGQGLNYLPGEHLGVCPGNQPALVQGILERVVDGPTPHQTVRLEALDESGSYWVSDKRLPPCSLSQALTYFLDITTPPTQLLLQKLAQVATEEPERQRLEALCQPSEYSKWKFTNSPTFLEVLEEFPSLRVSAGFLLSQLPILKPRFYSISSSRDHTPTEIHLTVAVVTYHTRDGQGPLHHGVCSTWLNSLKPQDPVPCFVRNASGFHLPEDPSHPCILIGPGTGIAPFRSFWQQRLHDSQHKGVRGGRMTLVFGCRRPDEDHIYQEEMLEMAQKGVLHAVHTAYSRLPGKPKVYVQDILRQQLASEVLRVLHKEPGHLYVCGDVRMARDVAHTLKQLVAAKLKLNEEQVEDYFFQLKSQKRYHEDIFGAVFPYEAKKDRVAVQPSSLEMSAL
# Sequence of iNOS (Type 2) (Q06518 whole entry, looked up): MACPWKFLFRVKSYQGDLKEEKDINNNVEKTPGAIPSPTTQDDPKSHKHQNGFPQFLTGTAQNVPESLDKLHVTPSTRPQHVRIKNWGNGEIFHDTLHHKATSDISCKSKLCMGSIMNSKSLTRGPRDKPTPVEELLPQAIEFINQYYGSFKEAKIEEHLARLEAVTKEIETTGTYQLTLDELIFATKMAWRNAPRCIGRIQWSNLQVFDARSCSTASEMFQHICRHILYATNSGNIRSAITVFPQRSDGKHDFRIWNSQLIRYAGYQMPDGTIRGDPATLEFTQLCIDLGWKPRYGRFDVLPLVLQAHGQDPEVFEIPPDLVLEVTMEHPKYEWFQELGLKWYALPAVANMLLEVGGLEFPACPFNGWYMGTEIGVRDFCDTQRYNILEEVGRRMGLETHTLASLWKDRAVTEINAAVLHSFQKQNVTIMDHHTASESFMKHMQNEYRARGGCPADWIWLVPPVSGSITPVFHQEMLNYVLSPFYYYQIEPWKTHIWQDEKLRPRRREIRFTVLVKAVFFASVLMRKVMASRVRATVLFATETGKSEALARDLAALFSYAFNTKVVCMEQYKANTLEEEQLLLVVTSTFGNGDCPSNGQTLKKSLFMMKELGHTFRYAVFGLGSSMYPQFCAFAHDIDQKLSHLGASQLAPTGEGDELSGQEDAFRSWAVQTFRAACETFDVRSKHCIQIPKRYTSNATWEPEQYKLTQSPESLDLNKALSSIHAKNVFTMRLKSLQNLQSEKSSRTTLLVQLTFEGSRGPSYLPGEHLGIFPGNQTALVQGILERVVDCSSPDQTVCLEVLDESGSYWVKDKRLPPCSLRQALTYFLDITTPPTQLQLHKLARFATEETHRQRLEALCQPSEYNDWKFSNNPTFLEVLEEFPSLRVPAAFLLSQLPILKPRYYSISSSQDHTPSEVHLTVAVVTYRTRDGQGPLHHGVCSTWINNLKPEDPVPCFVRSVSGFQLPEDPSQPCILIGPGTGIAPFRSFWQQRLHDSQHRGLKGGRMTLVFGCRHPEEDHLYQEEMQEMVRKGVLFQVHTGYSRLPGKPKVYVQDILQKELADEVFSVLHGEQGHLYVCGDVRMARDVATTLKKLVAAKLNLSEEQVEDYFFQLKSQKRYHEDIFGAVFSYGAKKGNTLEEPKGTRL
# T1 sequence (P29473 2-1205): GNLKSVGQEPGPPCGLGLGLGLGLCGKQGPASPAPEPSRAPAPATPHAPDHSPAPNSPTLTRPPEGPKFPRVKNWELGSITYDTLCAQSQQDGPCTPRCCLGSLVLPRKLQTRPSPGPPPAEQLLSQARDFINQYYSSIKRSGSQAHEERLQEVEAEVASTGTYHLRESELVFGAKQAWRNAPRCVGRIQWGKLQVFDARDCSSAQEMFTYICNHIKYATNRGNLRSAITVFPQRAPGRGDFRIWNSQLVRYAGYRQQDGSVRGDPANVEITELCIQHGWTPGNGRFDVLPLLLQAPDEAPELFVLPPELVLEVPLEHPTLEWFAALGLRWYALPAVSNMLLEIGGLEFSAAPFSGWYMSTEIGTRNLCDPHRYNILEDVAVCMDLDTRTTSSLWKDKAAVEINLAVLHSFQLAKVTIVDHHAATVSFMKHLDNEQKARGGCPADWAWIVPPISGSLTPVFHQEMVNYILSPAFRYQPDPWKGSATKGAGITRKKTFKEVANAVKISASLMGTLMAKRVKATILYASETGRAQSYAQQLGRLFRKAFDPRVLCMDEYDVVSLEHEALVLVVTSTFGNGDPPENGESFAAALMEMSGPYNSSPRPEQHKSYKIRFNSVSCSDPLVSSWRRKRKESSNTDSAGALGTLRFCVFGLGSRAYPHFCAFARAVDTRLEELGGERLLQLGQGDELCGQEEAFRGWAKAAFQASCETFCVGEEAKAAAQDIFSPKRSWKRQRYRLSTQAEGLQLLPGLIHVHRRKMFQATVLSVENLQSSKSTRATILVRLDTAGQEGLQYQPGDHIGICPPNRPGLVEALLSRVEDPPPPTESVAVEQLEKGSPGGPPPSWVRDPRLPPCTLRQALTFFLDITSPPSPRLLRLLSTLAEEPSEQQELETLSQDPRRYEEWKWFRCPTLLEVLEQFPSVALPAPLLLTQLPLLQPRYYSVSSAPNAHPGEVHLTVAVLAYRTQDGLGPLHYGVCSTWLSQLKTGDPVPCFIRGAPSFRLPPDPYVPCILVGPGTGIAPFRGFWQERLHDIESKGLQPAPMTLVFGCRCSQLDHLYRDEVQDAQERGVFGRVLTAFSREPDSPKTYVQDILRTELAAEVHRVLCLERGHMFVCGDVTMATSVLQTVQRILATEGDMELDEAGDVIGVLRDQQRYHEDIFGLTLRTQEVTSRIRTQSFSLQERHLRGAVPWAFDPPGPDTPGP
# Sequence of N-cNOS (P29475 whole entry): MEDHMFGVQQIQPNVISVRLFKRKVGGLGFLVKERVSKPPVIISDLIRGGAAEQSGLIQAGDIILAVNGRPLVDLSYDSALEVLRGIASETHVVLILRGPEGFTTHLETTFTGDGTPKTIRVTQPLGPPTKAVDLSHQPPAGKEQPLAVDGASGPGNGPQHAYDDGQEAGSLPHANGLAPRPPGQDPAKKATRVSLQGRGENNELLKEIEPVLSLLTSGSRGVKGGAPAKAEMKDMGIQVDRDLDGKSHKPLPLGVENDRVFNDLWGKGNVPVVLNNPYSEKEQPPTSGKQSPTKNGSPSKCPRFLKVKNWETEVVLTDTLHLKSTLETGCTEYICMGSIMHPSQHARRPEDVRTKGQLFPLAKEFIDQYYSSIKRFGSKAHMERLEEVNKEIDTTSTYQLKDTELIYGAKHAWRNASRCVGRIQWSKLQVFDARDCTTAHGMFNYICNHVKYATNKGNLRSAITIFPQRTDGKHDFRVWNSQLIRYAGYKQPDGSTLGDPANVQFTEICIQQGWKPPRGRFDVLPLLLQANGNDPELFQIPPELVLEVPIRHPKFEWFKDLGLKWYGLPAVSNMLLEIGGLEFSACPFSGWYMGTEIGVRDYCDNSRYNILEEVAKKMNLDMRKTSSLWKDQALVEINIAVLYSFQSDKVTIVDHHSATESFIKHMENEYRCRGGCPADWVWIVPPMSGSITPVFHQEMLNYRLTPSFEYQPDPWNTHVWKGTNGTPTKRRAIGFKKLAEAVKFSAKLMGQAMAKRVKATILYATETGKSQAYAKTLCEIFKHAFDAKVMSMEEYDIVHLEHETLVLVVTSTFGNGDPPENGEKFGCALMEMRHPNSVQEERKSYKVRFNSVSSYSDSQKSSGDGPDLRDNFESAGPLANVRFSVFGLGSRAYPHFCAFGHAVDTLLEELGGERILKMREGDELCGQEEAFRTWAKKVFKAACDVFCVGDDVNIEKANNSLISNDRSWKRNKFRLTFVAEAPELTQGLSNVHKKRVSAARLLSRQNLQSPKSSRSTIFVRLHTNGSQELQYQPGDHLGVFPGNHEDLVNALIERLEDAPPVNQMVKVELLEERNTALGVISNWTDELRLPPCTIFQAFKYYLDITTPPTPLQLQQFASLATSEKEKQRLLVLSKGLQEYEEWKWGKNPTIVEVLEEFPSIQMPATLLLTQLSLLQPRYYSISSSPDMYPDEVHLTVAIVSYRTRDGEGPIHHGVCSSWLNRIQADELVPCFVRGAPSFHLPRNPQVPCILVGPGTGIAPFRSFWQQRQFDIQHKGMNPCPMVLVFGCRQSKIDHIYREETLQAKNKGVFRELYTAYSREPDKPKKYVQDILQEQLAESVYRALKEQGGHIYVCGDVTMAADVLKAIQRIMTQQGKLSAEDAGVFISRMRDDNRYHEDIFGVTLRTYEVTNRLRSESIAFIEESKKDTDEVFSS
smiles,measurement,setting,value
"CSC(=N)NCCC[C@H](N)C(=O)O [L-MIN, S-methyl-L-thiocitrulline, reference compound]",IC50,E-cNOS (Type 3),152 nM
same,Ratio of IC50 values E-cNOS/iNOS,iNOS (Type 2),0.6
same,iNOS inhibitory potency compared with the existing NOS inhibitors (L-MIN),"iNOS (Type 2); conclusion from Tables 49, 50 and 51",the strongest iNOS inhibitory activity in the existing NOS inhibitors
same,IC50,"iNOS (Type 2); mean of one to four independent experiments, crude enzyme, 100 nM L-[3H]arginine, without CaCl2 and calmodulin, read-out: IC50 value, iNOS (Type 2)",248 nM
same,reported selectivity for N-cNOS,N-cNOS,selectivity for N-cNOS
"N=C(N)NN [AG, aminoguanidine]",reported selectivity for iNOS,iNOS,selectivity for iNOS
